We go through 9 molecules from patent US10125078B1, “NSAID derivatives of omega-3 polyunsaturated acids as gamma secretase modulators” (Jiva Pharma, Inc., priority 2015, dated 2018).

For one series, the target named is T1, gamma-secretase (Homo sapiens, UniProt P49768).
T1 construct: Fresh human neuroblastoma cells SHSY-5 were purchased from ATCC; host or cells: SH-SY5Y human neuroblastoma cells, untransfected
The experiment in a line: gamma-secretase modulating activity in cell cultures of human neuroblastoma SHSY-5 cells, intracellular Aβ x-40 by ELISA. The conditions noted are these: for average signal triplicates: cells incubated 18 h, ELISA OD 450 nm; for signal nomalised to cells: normalised to collected cell mass; for sign-bkgr: signal minus background. It counts as cell-based. The procedure: The gamma-secretase modulating activity of Jiva compounds were determined in Cell Cultures of fresh human neuroblastoma SHSY-5 cells. The enzyme-linked immunosorbent assay (ELISA) is one of the most commonly used, reliable, and sensitive methods for quantitating the A β peptides. The detailed methods for the recovery of both soluble and deposited A β from brain tissue and the subsequent quantitation of the peptides by ELISA are thoroughly described in literature such as Stephen D. Schmidt, et al., “Amyloid, Enzyme-linked immunosorbent assay, ELISA, Extraction, Quantification”, Methods in Molecular Biology, vol. 849, DOI 10.1007/978-1-61779-551-0_34, Springer Science+Business Media, LLC 2012; Zeljko M. Svedruzic, et al., “Modulators of γ-Secretase Activity Can Facilitate the Toxic Side-Effects and Pathogenesis of Alzheimer's Disease”, PLOS ONE, 1 Jan. 2013|Volume 8|Issue 1; Catherine R. Burton et al., “The Amyloid-β Rise and γ-Secretase Inhibitor Potency Depend on the Level of Substrate Expression” Aug. 22, 2008 The Journal of Biological Chemistry 283, 22992-23003.
The well-studied γ-secretase inhibitor, semagacestat (WIKI) was used as a positive control in the above assays.
The following are procedures used for screening gamma-secretase modulating activity of Jiva compounds in cell cultures.
Protocol for Growing SHSY-5 Cells:
Fresh human neuroblastoma cells SHSY-5 were purchased from ATCC in the […]. All SHSY-5 cells were propagated and grown in p75 flasks, following the supplier's instructions. Briefly, SH-SY5Y cells were grown to confluence in Dulbecco's Modified Eagles Medium (DMEM) supplemented with 2 mM L-glutamine, 1× nonessential amino acids, and 0.22 micrometers filtered 10% heat inactivated fetal bovine serum (FBS) in a 5% CO2 humidified incubator at 37° C. Cultures were split twice a week and cells were seeded at 2.5×10^4 cells/cm^2. The cells were detached from the bottles after two phosphate buffer washes that were followed by 5 min treatment with 0.25% trypsine solution.
Protocol for Preparation of Jiva Compounds and the Initial Screening:
Jiva compounds were dissolved under sterile conditions in different volumes of molecular biology grade dimethylsulfoxide (DMSO) so that the final concentration was 200 mM, with the goal to screen in a concentration range from 50 to 1000 μM. Thus, between 1 μL to 20 µL of DMSO solution of each Jiva compound was added to 4 mL of sterile cell media with FBS adjusted to 1%. The cells were incubated with different compounds for 18 h (i.e. overnight). Following the incubation cells were tested for viability and morphology. The first viability criteria was attachment to the surface, the second viability criteria was resistance to trypan blue uptake. Only viable cells were harvested for ELISA screening.
Confluent cells were scraped from p25 cell-culture bottles and collected in pellets by centrifugation for 5 mins at 1000 g. To measure intracellular amyloid β, the centrifugation helps in concentrating Aβ1-40 peptides for measurements. About 40 micro grams of cell can be recovered from 4 mL cell medium in p25 cell culture bottles. The cell pellets were re-suspended in RIPA buffer and incubated on ice for 30 min.
RIPA buffer means 150 mM sodium chloride; 1% NP-40; 0.5% sodium deoxycholate; 0.1% SDS; 50 mM Tris pH 8.0.
Following lysis, the cell debris was separated by centrifugation, 1 h at 40,000×g. The clear supernatant was collected for ELISA measurements that followed immediately after the centrifugation.
ELISA measurements used IBL ELISA kits for Aβ x-40 using manufacturer's protocol and supplied standards. Briefly, for each measurement 100 μL sample was prepared from 12.5 μL lysis buffer and 87.5 μL ASSAYBUF solutions in each well. ASSAYBUF solution were supplied in the kit, and used to incubate cell lysate with anti-amyloid antibody attached to the wells in ELISA plates. The plate covered with plate-lid was incubated with gentle shaking overnight at 4° C. […]

The next series relates to 4 year old children. To be noted: cited from earlier work.
A further series relates to Aβ42 peptide. The conditions noted are these: cited from earlier work.
For the next series, the system named is mild AD patients. To be noted: cited from earlier work.
For series [1] the following is noted: compared with tarenflurbil; cited from earlier work.

Structures are written as SMILES. Several values for one entry are separate records, joined by “and”; a condition that tells them apart may be missing. Identical values can stand only once.

As to `CC/C=C\C/C=C\C/C=C\C/C=C\C/C=C\CCCCC1(C(=O)OC(C)(C)C)CC1` [JIVA 24, EPA Cyclopropyl-fibrate t-butyl Ester], on gamma-secretase (7.13 microM), the average signal triplicates was determined as 0.300, the “signal nomalised to cells” value is given as 0.233 and the sign-bkgr was found to be 0.246.

In the case of `CC(C)[C@H](O)C(=O)N[C@@H](C)C(=O)N[C@@H]1C(=O)N(C)CCc2ccccc21` [SEMAGACESTAT, semagacestat, reference compound], on gamma-secretase (2 microM), the average signal triplicates was 0.12, the “signal nomalised to cells” value is 0.000 and the sign-bkgr turned out to be 0.

For the molecule `CC/C=C\C/C=C\C/C=C\CCCCCCCCC(C(=O)O)C1CC1` (stereo not drawn) [JIVA 29, ALA Cyclopropyl Acetic Acid Fibrate], on gamma-secretase (20 microM), the average signal triplicates came to 0.141, the “signal nomalised to cells” value was 0.026 and the sign-bkgr is 0.021.

With `CC/C=C\C/C=C\C/C=C\C/C=C\C/C=C\C/C=C\CCC(=O)O` [DHA, cis,cis,cis,cis,cis,cis-4,7,10,13,16,19-docosahexaenoic acid], the “effects on cognitive function” value with 4 year old children is reported as “beneficial effects”.

`C[C@@H](C(=O)O)c1ccc(-c2ccccc2)c(F)c1` [tarenflurbil]: in the series with Aβ42 peptide, the “potency at inhibiting formation of toxic Aβ42 peptide” value is on record as “low potency”. In addition, the “outcome of large scale clinical trials” value in the series on mild AD patients is “failed large scale clinical trials”.

As for `CC/C=C\C/C=C\C/C=C\CCCCCCCCC1(C(=O)O)CC1` [JIVA 27, ALA Cyclopropyl Fibrate], on gamma-secretase (20 microM), the average signal triplicates was 0.355, the “signal nomalised to cells” value came to 0.201 and the sign-bkgr stood at 0.236.

`O=C(O)C1(c2ccc(-c3ccc(Cl)c(Cl)c3)c(F)c2)CC1` [CHF-5074]: in the series with Aβ42 peptide, the “Aβ42 IC50” value is given as “potent”. Moreover, the brain penetration entry in series [1] is recorded as “greater brain penetration”.

For the molecule `CC(C)C[C@H](C(=O)O)c1cc(-c2ccc(C(F)(F)F)cc2)cc(-c2ccc(C(F)(F)F)cc2)c1` [JNJ-40418677], the “Aβ42 IC50” value with Aβ42 peptide was “potent”. Also, the brain penetration result in series [1] is “greater brain penetration”.

In the case of `CC/C=C\C/C=C\C/C=C\CCCCCCCCC1(C(=O)OC(C)(C)C)CC1` [JIVA 25, ALA Cyclopropyl-fibrate t-butyl Ester], at gamma-secretase (20 microM), the “signal nomalised to cells” value was 0.209 and 0.130; the sign-bkgr was 0.316 and 0.173.
